From patent publication EP0083600B1, “Use of alkaloid derivatives for the manufacture of a medicament for the strengthening of the immune system and for the treatment of viral, bacterial and fungal infections” (Nowicky, Wassyl, priority 1981, dated 1983)

Experiment: Biological test of toxicity (lethal dose)
Format: in vivo
Settings: biologischer Test
Experimental: Weiterhin ließ sich nachweisen, daß in dem Präparat Ukrain (hier erfolgte die Umsetzung der Alkaloide von Chelidonium majus L. mit Thiophosphorsäuretriaziridid, gen. Thio-TEPA) keine freien Äthylengruppen des Thio-TEPA vorliegen. Dieser Nachweis wurde erbracht: • 1. durch eine chemische Analyse und • 2. dadurch, daß beim biologischen Test die Dosis letalis für Thio-TEPA bei 1 mg/kg Körpergewicht liegt, für das Präparat jedoch eine Dosis von 250 mg/kg Körpergewicht nicht toxisch ist.

S=P(N1CC1)(N1CC1)N1CC1 [Thio-TEPA, Thiophosphorsäuretriaziridid]
Dosis letalis: 1 mg/kg Körpergewicht
